Test results published in US12479840B2, “HMG-CoA reductase degradation inducing compound” (Uppthera, priority 2020, dated 2025).

Target: T1, HMG-CoA reductase (Homo sapiens, UniProt P04035)
T1 construct: endogenous in cells; host or cells: HepG2 (Korea Cell Line Bank)
T1 sequence (P04035 1-888): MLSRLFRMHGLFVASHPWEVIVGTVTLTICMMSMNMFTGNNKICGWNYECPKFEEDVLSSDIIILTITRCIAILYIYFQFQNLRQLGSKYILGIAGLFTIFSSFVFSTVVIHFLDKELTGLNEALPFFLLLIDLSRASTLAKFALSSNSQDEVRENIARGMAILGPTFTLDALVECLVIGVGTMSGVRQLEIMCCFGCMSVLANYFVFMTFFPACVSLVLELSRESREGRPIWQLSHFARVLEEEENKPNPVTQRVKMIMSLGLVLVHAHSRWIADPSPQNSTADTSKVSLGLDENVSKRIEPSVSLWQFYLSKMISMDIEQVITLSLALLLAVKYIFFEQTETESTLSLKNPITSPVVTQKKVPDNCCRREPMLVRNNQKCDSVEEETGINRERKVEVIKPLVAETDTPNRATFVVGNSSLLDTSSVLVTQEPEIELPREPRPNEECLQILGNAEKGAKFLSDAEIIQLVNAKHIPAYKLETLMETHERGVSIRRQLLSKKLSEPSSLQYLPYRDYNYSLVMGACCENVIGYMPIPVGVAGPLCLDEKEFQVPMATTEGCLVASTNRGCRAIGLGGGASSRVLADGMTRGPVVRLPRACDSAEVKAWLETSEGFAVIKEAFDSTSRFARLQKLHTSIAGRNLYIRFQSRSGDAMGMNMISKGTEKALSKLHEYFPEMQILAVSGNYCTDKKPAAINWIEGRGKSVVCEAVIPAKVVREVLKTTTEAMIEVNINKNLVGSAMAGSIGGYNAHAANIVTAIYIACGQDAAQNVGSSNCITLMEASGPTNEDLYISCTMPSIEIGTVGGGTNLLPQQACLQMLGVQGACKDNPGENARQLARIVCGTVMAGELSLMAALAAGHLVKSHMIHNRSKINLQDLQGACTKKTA
Test: HMG-CoA reductase (HMGCR) degradation in HepG2 cells by western blotting
Assay type: cell-based
Details: treated for 18 hours, ratio of HMG-CoA reductase to GAPDH, read-out: DC50
Procedure, shortened: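 HepG2 cells (passage P105–P110) treated 18 hours with compounds in 10-point three-fold dilutions from 3 μM. RIPA lysates (15 μg protein, BCA-quantified) run on SDS-PAGE and immunoblotted for HMGCR (1:500) with GAPDH (1:20000) as loading control, primary antibodies 16 hours at 4° C.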

DC50 [nM]	SMILES
< 50	C[C@H]1C=C2C=C[C@H](C)[C@H](CC[C@@H]3C[C@@H](O)CC(=O)O3)[C@H]2[C@@H](OC(=O)NCCCOC2CCN(C(=O)COc3cccc4c3C(=O)N(C3CCC(=O)NC3=O)C4=O)CC2)C1 (stereo partly drawn) [Compound 135, (1S,3R,7S,8S,8aR)-8-(2-((2R,4R)-4-hydroxy-6-oxotetrahydro-2H-pyran-2-yl)ethyl)-3,7-dimethyl-1,2,3,7,8,8a-hexahydronaphthalen-1-yl (3-((1-(2-((2-(2,6-dioxopiperidin-3-yl)-1,3-dioxoisoindolin-4-yl)oxy)acetyl)piperidin-4-yl)oxy)propyl)carbamate]
50 to 500	C[C@H]1C=C2C=C[C@H](C)[C@H](CC[C@@H]3C[C@@H](O)CC(=O)O3)[C@H]2[C@@H](OC(=O)NCCOCCOCCNC(=O)COc2cccc3c2C(=O)N(C2CCC(=O)NC2=O)C3=O)C1 (stereo partly drawn) [Compound 139, (1S,3R,7S,8S,8aR)-8-(2-((2R,4R)-4-hydroxy-6-oxotetrahydro-2H-pyran-2-yl)ethyl)-3,7-dimethyl-1,2,3,7,8,8a-hexahydronaphthalen-1-yl (2-(2-(2-(2-((2-(2,6-dioxopiperidin-3-yl)-1,3-dioxoisoindolin-4-yl)oxy)acetamido)ethoxy)ethoxy)ethyl)carbamate]
50 to 500	C[C@H]1C=C2C=C[C@H](C)[C@H](CC[C@@H]3C[C@@H](O[Si](C)(C)C(C)(C)C)CC(=O)O3)[C@H]2[C@@H](OC(=O)NCCOCCOCC(=O)Nc2cccc3c2C(=O)N(C2CCC(=O)NC2=O)C3=O)C1 (stereo partly drawn) [Compound 142, (1S,3R,7S,8S,8aR)-8-(2-((2R,4R)-4-((tert-butyldimethylsilyl)oxy)-6-oxotetrahydro-2H-pyran-2-yl)ethyl)-3,7-dimethyl-1,2,3,7,8,8a-hexahydronaphthalen-1-yl (2-(2-(2-((2-(2,6-dioxopiperidin-3-yl)-1,3-dioxoisoindolin-4-yl)amino)-2-oxoethoxy)ethoxy)ethyl)carbamate]
< 50	C[C@H]1C=C2C=C[C@H](C)[C@H](CC[C@@H]3C[C@@H](O[Si](C)(C)C(C)(C)C)CC(=O)O3)[C@H]2[C@@H](OC(=O)NCCc2ccc(CC(=O)Nc3cccc4c3C(=O)N(C3CCC(=O)NC3=O)C4=O)cc2)C1 (stereo partly drawn) [Compound 146, (1S,3R,7S,8S,8aR)-8-(2-((2R,4R)-4-((tert-butyldimethylsilyl)oxy)-6-oxotetrahydro-2H-pyran-2-yl)ethyl)-3,7-dimethyl-1,2,3,7,8,8a-hexahydronaphthalen-1-yl (4-(2-((2-(2,6-dioxopiperidin-3-yl)-1,3-dioxoisoindolin-4-yl)amino)-2-oxoethyl)phenethyl)carbamate]
< 50	C[C@H]1C=C2C=C[C@H](C)[C@H](CC[C@@H]3C[C@@H](O)CC(=O)O3)[C@H]2[C@@H](OC(=O)C(C)(C)CCC(=O)NCCOCCOCCNc2cccc3nnn(C4CCC(=O)NC4=O)c(=O)c23)C1 (stereo partly drawn) [Compound 152, (1S,3R,7S,8S,8aR)-8-(2-((2R,4R)-4-hydroxy-6-oxotetrahydro-2H-pyran-2-yl)ethyl)-3,7-dimethyl-1,2,3,7,8,8a-hexahydronaphthalen-1-yl 5-((2-(2-(2-((3-(2,6-dioxopiperidin-3-yl)-4-oxo-3,4-dihydrobenzo[d][1,2,3]triazin-5-yl)amino)ethoxy)ethoxy)ethyl)amino)-2,2-dimethyl-5-oxopentanoate]

The next lines start with the compound.

SMILES	DC50 [nM]
C[C@H]1C=C2C=C[C@H](C)[C@H](CC[C@@H]3C[C@@H](O[Si](C)(C)C(C)(C)C)CC(=O)O3)[C@H]2[C@@H](OC(=O)NCCOCCOCCNC(=O)COc2cccc3c2C(=O)N(C2CCC(=O)NC2=O)C3=O)C1 (stereo partly drawn) [Compound 138, (1S,3R,7S,8S,8aR)-8-(2-((2R,4R)-4-((tert-butyldimethylsilyl)oxy)-6-oxotetrahydro-2H-pyran-2-yl)ethyl)-3,7-dimethyl-1,2,3,7,8,8a-hexahydronaphthalen-1-yl (2-(2-(2-(2-((2-(2,6-dioxopiperidin-3-yl)-1,3-dioxoisoindolin-4-yl)oxy)acetamido)ethoxy)ethoxy)ethyl)carbamate]	< 50
C[C@H]1C=C2C=C[C@H](C)[C@H](CC[C@@H]3C[C@@H](O)CC(=O)O3)[C@H]2[C@@H](OC(=O)NCCOCCOCC(=O)Nc2cccc3c2C(=O)N(C2CCC(=O)NC2=O)C3=O)C1 (stereo partly drawn) [Compound 143, (1S,3R,7S,8S,8aR)-8-(2-((2R,4R)-4-hydroxy-6-oxotetrahydro-2H-pyran-2-yl)ethyl)-3,7-dimethyl-1,2,3,7,8,8a-hexahydronaphthalen-1-yl (2-(2-(2-((2-(2,6-dioxopiperidin-3-yl)-1,3-dioxoisoindolin-4-yl)amino)-2-oxoethoxy)ethoxy)ethyl)carbamate]	< 50
C[C@H]1C=C2C=C[C@H](C)[C@H](CC[C@@H]3C[C@@H](O[Si](C)(C)C(C)(C)C)CC(=O)O3)[C@H]2[C@@H](OC(=O)NCCOCC(=O)NCC(=O)Nc2cccc3c2C(=O)N(C2CCC(=O)NC2=O)C3=O)C1 (stereo partly drawn) [Compound 144, (1S,3R,7S,8S,8aR)-8-(2-((2R,4R)-4-((tert-butyldimethylsilyl)oxy)-6-oxotetrahydro-2H-pyran-2-yl)ethyl)-3,7-dimethyl-1,2,3,7,8,8a-hexahydronaphthalen-1-yl (2-(2-((2-((2-(2,6-dioxopiperidin-3-yl)-1,3-dioxoisoindolin-4-yl)amino)-2-oxoethyl)amino)-2-oxoethoxy)ethyl)carbamate]	50 to 500
C[C@H]1C=C2C=C[C@H](C)[C@H](CC[C@@H]3C[C@@H](O)CC(=O)O3)[C@H]2[C@@H](OC(=O)NCCOCC(=O)NCC(=O)Nc2cccc3c2C(=O)N(C2CCC(=O)NC2=O)C3=O)C1 (stereo partly drawn) [Compound 145, (1S,3R,7S,8S,8aR)-8-(2-((2R,4R)-4-hydroxy-6-oxotetrahydro-2H-pyran-2-yl)ethyl)-3,7-dimethyl-1,2,3,7,8,8a-hexahydronaphthalen-1-yl (2-(2-((2-((2-(2,6-dioxopiperidin-3-yl)-1,3-dioxoisoindolin-4-yl)amino)-2-oxoethyl)amino)-2-oxoethoxy)ethyl)carbamate]	< 50
C[C@H]1C=C2C=C[C@H](C)[C@H](CC[C@@H]3C[C@@H](O)CC(=O)O3)[C@H]2[C@@H](OC(=O)NCCc2ccc(CC(=O)Nc3cccc4c3C(=O)N(C3CCC(=O)NC3=O)C4=O)cc2)C1 (stereo partly drawn) [Compound 147, (1S,3R,7S,8S,8aR)-8-(2-((2R,4R)-4-hydroxy-6-oxotetrahydro-2H-pyran-2-yl)ethyl)-3,7-dimethyl-1,2,3,7,8,8a-hexahydronaphthalen-1-yl (4-(2-((2-(2,6-dioxopiperidin-3-yl)-1,3-dioxoisoindolin-4-yl)amino)-2-oxoethyl)phenethyl)carbamate]	< 50
C[C@H]1C=C2C=C[C@H](C)[C@H](CC[C@@H]3CC=CC(=O)O3)[C@H]2[C@@H](OC(=O)NCCOCCOCCNc2cccc3c2C(=O)N(C2CCC(=O)NC2=O)C3=O)C1 (stereo partly drawn) [Compound 153, (1S,3R,7S,8S,8aR)-3,7-dimethyl-8-(2-((R)-6-oxo-3,6-dihydro-2H-pyran-2-yl)ethyl)-1,2,3,7,8,8a-hexahydronaphthalen-1-yl (2-(2-(2-((2-(2,6-dioxopiperidin-3-yl)-1,3-dioxoisoindolin-4-yl)amino)ethoxy)ethoxy)ethyl)carbamate]	< 50
